Data published in paper PMC11508334, “In Vitro Evaluation of New 5-Nitroindazolin-3-one Derivatives as Promising Agents against Trypanosoma cruzi” (International Journal of Molecular Sciences, 2024).

Tests used:
Dm28c trypomastigotes = assay: Trypomastigote viability study (MTT); format: cell-based, Trypanosoma cruzi; settings: for SI Trypomastigote: Selectivity Index IC50 macrophages RAW 264.7/IC50 trypomastigotes Dm28c; for IC50: Trypanosoma cruzi, T. cruzi Dm28c trypomastigotes, 24 h, MTT
Experimental: Vero cells (ATCC CCL-81) were infected with Dm28c trypomastigotes at a 1:3 (cell: parasite) ratio. T. cruzi trypomastigotes were initially obtained from primary cultures of peritoneal macrophage from chagasic mice. […] Vero cell cultures were then infected with trypomastigotes and incubated at 37 °C in humidified air and 5% CO2 for 5–7 days. After that time, the culture medium was collected and centrifuged at 500× g for 5 min. The trypomastigote-containing pellet was re-suspended in RPMI 1640 supplemented with inactivated FBS and penicillin–streptomycin at a final 1 × 10^7 parasites/mL density. Trypomastigote viability assays were performed using the MTT reduction method as described previously. Then, 1 × 10^7 parasites/mL was incubated in RPMI 1640 with inactivated FBS at 37 °C for 24 h with or without the studied compounds.

RAW 264.7 cells [1] = assay: Cytotoxicity MTT assay on RAW 264.7 cells; format: cell-based; settings: Mus musculus, RAW264.7, in vitro cytotoxicity, murine RAW 264.7 macrophages
Experimental: The compounds under study, dissolved in dimethylsulfoxide (DMSO), were added to the culture media at 10–200 μM. RAW 264.7 cells were cultured in 96-well plates (5 × 10^4 cells per well), and 100 μL of 0.5 mg/mL MTT was added to each well. The DMSO final concentration was less than 0.1% v/v. After incubation for 4 h at 37 °C, the generated water-insoluble formazan dye was dissolved by adding 100 μL of 10% w/v sodium dodecyl sulfate (SDS) in 0.01 M HCl. The plates were further incubated overnight at 37 °C; […] 0.5% of Triton X-100 was added as a positive control. The plates were further incubated overnight at 37 °C, and the optical density of the wells was determined using a microplate reader (Asys Expert Plus©, Asys Hitachi, Vienna, Austria) at 570 nm. Under these conditions, the optical density is directly proportional to the viable cell number in each well. All experiments were performed at least thrice and data were reported as means and their standard deviations from triplicate cultures. Results are reported as IC50 regarding the control (uninfected cells in culture medium)

[2] = test system: T. cruzi epimastigote stage (Dm28c strain); assay: Epimastigotes viability study (MTT); format: cell-based, Trypanosoma cruzi; settings: for SI Epimastigote: Selectivity Index IC50 macrophages RAW 264.7/IC50 epimastigotes Dm28c; for IC50: Trypanosoma cruzi, T. cruzi Dm28c epimastigotes, 24 h, MTT
Experimental: The trypanocidal activity was evaluated against the T. cruzi epimastigote stage (Dm28c strain). It was measured through the MTT assay using 0.22 mg/mL phenazine methosulfate (as an electron carrier). T. cruzi epimastigote from the author's collection (Programa de Farmacología Molecular y Clínica, Facultad de Medicina, Universidad de Chile, Santiago, Chile) were grown at 28 °C in liver infusion tryptase (LIT) medium, as reported earlier, but replacing blood with 4 μM hemin. […] fetal bovine serum (FBS) was added to a final concentration of 10% v/v. In this colorimetric assay for testing the trypanocidal activity, the compounds were dissolved in DMSO. They were added to 3 × 10^6 parasites/mL at 100 μM final concentrations in RPMI 1640 culture medium without phenol red for 24 h at 28 °C. The final concentration of DMSO was less than 0.1% v/v. […] The MTT assay, which was described previously, determined the viability of the epimastigotes.

[3] = Cyclic voltammetry, reduction of nitro group; format: physicochemical; settings: for −EpaIII: anodic peak potential of couple IIIc/IIIa; for −EpaIII / −EpcIII / −E1/2: given with inverted sign, vs. Ag/AgCl electrode in DMSO; for −EpcIII: cathodic peak potential of couple IIIc/IIIa; for Ipa/Ipc: current ratio RNO2/RNO2•−, couple IIIc/IIIa, DMSO; for −E1/2: half-wave potential of couple IIIc/IIIa
Experimental: Cyclic Voltammetry (CV) was carried out using a Metrohm Autolab instrument model PGSTAT204, using dimethyl sulfoxide (DMSO) as the solvent (1 mM solutions), tetrabutylammonium perchlorate (0.1 M TBAP) as the supporting electrolyte, a hanging drop mercury electrode (HDME) as the working electrode, Ag/AgCl (3M KCl) as the reference electrode, and a graphite rod as the counter electrode. All measurements were performed after bubbling with nitrogen (N2) for 10 min.
Using Nicholson’s procedure, the Ipa/Ipc values (RNO2/RNO2^•−) were measured from each cyclic voltammogram with a scan rate between 0.1 and 2.5 V/s.

RAW 264.7 cells [4] = assay: Plasma membrane permeability (SYTOX Green) of RAW 264.7 cells; format: cell-based, murine
[5] = test system: trypomastigote form of T. cruzi; assay: Analysis of ATP levels (CellTiter-Glo); format: cell-based, Trypanosoma cruzi; settings: trypomastigotes; relative to negative control
Experimental: The CellTiter-Glo® Luminescent Cell Viability Assay (Promega, Fitchburg, WI, USA) was used to detect variations in ATP levels. After incubation, treated parasites were centrifuged (6000 rpm, 10 min, 4 °C) and treated according to the manufacturer’s instructions. Luminescence was determined using the Varioskan™ LUX multi-mode microplate reader (ThermoFisher Scientific). Results were expressed as a percentage relative to the negative control without treatment. Sodium azide (20 mM NaN3 for 3 h) was added as a positive control and benznidazole as a reference treatment. (1) %relative control=luminescence sample/luminescence control∗100

[6] = test system: trypomastigotes of T. cruzi; assay: Plasmatic membrane permeability assay (SYTOX Green) on trypomastigotes; format: cell-based, Trypanosoma cruzi; settings: compound at IC50, 1 h
Experimental: Late growth-phase trypomastigotes of T. cruzi (3 × 10^6/well) were washed and incubated in the dark with 1 μM SYTOX Green probe (Molecular Probes) in HANKS′ balanced salts solution (HBSS; Sigma-Aldrich) supplemented with 10 mM D-glucose (HBSS + Glu). The test compound was added at IC50, and fluorescence was measured after 1 h of treatment. The maximum permeabilization was obtained with 0.5% Triton X-100. Fluorescence intensity was determined using Varioskan™ LUX multimode microplate reader (ThermoFisher Scientific, Waltham, MA, USA), with excitation and emission wavelengths of 485 and 520 nm, respectively. The following internal controls were used in the evaluation: (i) the background fluorescence of the compound at the respective wavelengths and (ii) the possible interference of DMSO. Samples were tested in triplicate.

[7] = test system: Dm28c trypomastigote of T. cruzi; assay: Mitochondrial membrane potential (TMRM incorporation); format: cell-based, Trypanosoma cruzi; settings: trypomastigotes, compound at IC50, 3 h; compared to negative control
Experimental: Mitochondrial membrane potential (ψm) was determined by the incorporation of the fluorescent probe tetramethylrhodamine methyl ester (TMRM). […] Then, carbonylcyanide-m-chlorophenylhydrazone (CCCP, 10 µM) was added as a control and incubated at 37 °C in humidified air and 5% CO2 for 3 h. Parasites were washed with phosphate-buffered saline (pH 7.4), and suspensions were incubated with TMRM (50 nM) for 15 min. Fluorescence measurements determined the incorporation of the probe at an excitation wavelength of 550 nm and an emission of 590 nm. All the assays were performed in darkness.

Compound | SI Trypomastigote (Dm28c trypomastigotes) | IC50 (Dm28c trypomastigotes) [µM] | IC50 (RAW 264.7 cells [1]) [µM] | SI Epimastigote [2] | IC50 [2] [µM] | −EpaIII [3] [V] | −EpcIII [3] [V] | Ipa/Ipc [3] | −E1/2 [3] [V] | effect on plasma membrane permeability (SYTOX Green incorporation) (RAW 264.7 cells [4]) | melting point [°C] | ATP levels [5] | alteration of plasma membrane permeability (SYTOX Green incorporation) [6] | effect on mitochondrial membrane potential (ψm) [7]
Cn1[nH]c2ccc([N+](=O)[O-])cc2c1=O [Compound 3a] | 1.4 | 18.5 ± 0.9 | 26.1 ± 0.8 | 2.9 | 8.9 ± 1.3 | 0.95 | 1.13 | 0.99 | 1.04 | significantly affect permeability |  |  |  | 
Cn1c2ccc([N+](=O)[O-])cc2c(=O)n1Cc1ccc(Cl)cc1 [Compound 11, 2-(4-Chlorobenzyl)-1-methyl-5-nitro-1,2-dihydro-3H-indazol-3-one] | 1.0 | 67.8 ± 1.7 | 68.8 ± 1.2 | 1.0 | 70.1 ± 2.1 | 0.99 | 1.21 | 0.89 | 1.10 | significantly affect permeability | 128 to 130 |  |  | 
Cn1c2ccc([N+](=O)[O-])cc2c(=O)n1Cc1ccc(Br)cc1 [Compound 14, 2-(4-Bromobenzyl)-1-methyl-5-nitro-1,2-dihydro-3H-indazol-3-one] | 3.5 | 48.6 ± 1.2 | 172 ± 2.3 | 2.1 | 83.9 ± 1.9 | 0.99 | 1.20 | 0.94 | 1.10 |  | 144 to 146 |  |  | 
Cn1c(=O)c2cc([N+](=O)[O-])ccc2n1C [Compound 3b] | >4.8 | 41.8 ± 1.1 | > 200 |  | 28.6 ± 2.1 | 1.03 | 1.13 | 1.00 | 1.08 |  |  | significantly reduced ATP levels | alter plasma membrane permeability | statistically significant impact
Cn1c2ccc([N+](=O)[O-])cc2c(=O)n1Cc1cccc(Br)c1 [Compound 13, 2-(3-Bromobenzyl)-1-methyl-5-nitro-1,2-dihydro-3H-indazol-3-one] | >4.6 | 43.6 ± 1.1 | > 200 | >2.5 | 79.8 ± 2.3 | 0.99 | 1.13 | 0.97 | 1.06 |  | 149 to 151 | significantly reduced ATP levels | alter plasma membrane permeability | statistically significant impact
Cn1c2ccc([N+](=O)[O-])cc2c(=O)n1Cc1cccc(Cl)c1 [Compound 10, 2-(3-Chlorobenzyl)-1-methyl-5-nitro-1,2-dihydro-3H-indazol-3-one] | >3.7 | 54.2 ± 1.1 | > 200 | >5.0 | 40.3 ± 2 | 0.96 | 1.17 | 0.93 | 1.07 |  | 154 to 156 |  |  | 
O=c1[nH]n(-c2ccccc2)c2ccc([N+](=O)[O-])cc12 [Compound 22] | >13.1 | 15.3 ± 1.2 | > 200 | >32.3 | 6.2 ± 0.9 | 1.26 |  | 0.59 | 1.33 |  |  | significantly reduced ATP levels | alter plasma membrane permeability | statistically significant impact
Cn1c2ccc([N+](=O)[O-])cc2c(=O)n1Cc1ccccc1Br [Compound 12, 2-(2-Bromobenzyl)-1-methyl-5-nitro-1,2-dihydro-3H-indazol-3-one] | 1.4 | 52.5 ± 1.3 | 72.4 ± 1.6 | 2.4 | 30.3 ± 1.1 | 0.96 | 1.17 | 1.00 | 1.07 |  | 182 to 184 |  |  | 
